Experiments:
DGKζ = DGKζ (Homo sapiens (Human), UniProt Q13574); experiment: Biochemical DGK IC50 assay, DGKζ ADP-Glo assay; conditions: 0.5 nM enzyme, 140 μM ATP, 80 μM DAG; read-out: DGKζ ADP-Glo assay IC50
Summary of the method: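 Full-length human DGKζ, His-TEV tagged and purified from baculovirus-infected Sf9 cells, assayed by ADP-Glo with DAG/PS lipid micelle substrate prepared in 25 mM HEPES pH 7.0 with octyl glucoside. Final compound concentrations spanned 1.55–10000 nM or 23.3–150000 nM.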

DGKα = DGKα (Homo sapiens (Human), UniProt P23743); experiment: Biochemical DGK IC50 assay, DGKα ADP-Glo assay; conditions: 7.5 nM enzyme, 140 μM ATP, 80 μM DAG
Summary of the method: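 ADP-Glo read-out with full-length DGKα on DAG/PS lipid micelle substrate in 25 mM HEPES pH 7.0, 0.5 mM EDTA, 160 mM octyl β-D-glucopyranoside. Compound final concentrations spanned 1.55˜10000 nM or 23.3˜150000 nM.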

Sequence of DGKζ (Q13574 other isoform, or with tags, fused parts or gaps): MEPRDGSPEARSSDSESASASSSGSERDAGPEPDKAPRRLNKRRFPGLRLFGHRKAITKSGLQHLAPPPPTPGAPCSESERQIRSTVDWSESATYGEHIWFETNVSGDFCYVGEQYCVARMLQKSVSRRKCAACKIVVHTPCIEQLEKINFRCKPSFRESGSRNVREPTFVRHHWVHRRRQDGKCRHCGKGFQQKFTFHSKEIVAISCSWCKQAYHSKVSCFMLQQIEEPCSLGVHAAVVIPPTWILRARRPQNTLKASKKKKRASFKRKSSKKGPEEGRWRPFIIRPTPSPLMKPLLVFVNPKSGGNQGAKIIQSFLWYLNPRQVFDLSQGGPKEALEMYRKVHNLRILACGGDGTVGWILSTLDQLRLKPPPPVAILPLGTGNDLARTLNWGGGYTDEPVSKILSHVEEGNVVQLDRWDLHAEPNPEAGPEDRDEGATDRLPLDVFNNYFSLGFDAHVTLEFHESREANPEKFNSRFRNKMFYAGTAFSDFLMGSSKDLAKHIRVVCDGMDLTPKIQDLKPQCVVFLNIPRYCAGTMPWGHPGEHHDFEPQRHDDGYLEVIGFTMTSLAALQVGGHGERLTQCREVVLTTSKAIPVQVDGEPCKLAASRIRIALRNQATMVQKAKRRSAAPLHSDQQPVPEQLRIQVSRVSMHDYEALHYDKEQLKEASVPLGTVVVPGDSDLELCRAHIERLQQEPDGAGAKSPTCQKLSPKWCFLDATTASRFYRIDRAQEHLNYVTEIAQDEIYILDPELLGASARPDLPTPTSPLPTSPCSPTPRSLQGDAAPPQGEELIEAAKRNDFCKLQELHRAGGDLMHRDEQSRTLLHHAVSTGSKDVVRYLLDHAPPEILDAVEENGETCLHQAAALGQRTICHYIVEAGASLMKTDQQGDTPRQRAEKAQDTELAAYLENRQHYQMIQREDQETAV
Sequence of DGKα (P23743 whole entry): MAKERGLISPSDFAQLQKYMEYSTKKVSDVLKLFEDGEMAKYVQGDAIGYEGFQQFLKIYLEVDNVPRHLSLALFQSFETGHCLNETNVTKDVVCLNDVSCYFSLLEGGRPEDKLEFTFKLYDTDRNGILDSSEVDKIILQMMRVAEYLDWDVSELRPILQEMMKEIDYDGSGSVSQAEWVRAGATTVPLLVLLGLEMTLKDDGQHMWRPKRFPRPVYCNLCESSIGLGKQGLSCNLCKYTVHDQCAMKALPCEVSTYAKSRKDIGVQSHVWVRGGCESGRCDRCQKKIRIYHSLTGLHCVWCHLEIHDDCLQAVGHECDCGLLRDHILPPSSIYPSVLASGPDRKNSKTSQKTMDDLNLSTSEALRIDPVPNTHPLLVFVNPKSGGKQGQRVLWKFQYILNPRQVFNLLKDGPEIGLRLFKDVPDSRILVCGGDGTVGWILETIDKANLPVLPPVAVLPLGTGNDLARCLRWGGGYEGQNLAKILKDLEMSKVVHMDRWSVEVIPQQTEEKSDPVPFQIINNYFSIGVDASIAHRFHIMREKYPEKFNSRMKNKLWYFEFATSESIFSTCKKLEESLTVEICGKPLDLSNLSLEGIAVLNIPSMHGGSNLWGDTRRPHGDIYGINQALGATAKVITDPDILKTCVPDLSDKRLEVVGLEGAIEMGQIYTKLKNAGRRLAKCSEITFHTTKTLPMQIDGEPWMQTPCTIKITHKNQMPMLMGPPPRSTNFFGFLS

Row | IC50 (DGKζ) [nM] | IC50 (DGKα) [nM] | SMILES
1 | 12000 | 52000 | CC(c1ccc2nccnc2c1)N1C[C@H](C)N(c2cc(=O)n(C)c3cn(C4CCC4)nc23)C[C@H]1C (stereo partly drawn) [Compound A14]
2 | 2540 | 2450 | CC[C@H]1CN(C(C)c2cnc3c(n2)CCCC3)[C@H](CC)CN1c1cc(=O)n(C)c2cn(CC#N)nc12 (single isomer, unassigned) [Compound A357a]
3 | 51 | 61600 | [2H]C([2H])([2H])c1cnc2ccc(C(C)N3C[C@H](C)N(c4cc(=O)n(C)c5cn(CC#N)nc45)C[C@H]3C)cc2n1 (single isomer, unassigned) [Compound A313b]
4 | 33 | 6980 | CC[C@H]1CN(C(C)c2cnn(C)c2C(F)(F)F)[C@H](CC)CN1c1cc(=O)n(C)c2cn(CC#N)nc12 (stereo partly drawn) [Compound A233, 2-(7-((2S,5R)-2,5-diethyl-4-(1-(1-methyl-5-(trifluoromethyl)-1H-pyrazol-4-yl)ethyl)piperazin-1-yl)-4-methyl-5-oxo-4,5-dihydro-2H-pyrazolo[4,3-b]pyridin-2-yl)acetonitrile]
5 | 93 | 78200 | CC[C@@H]1CN(c2cc(=O)n(C)c3cn(CC#N)nc23)CCN1C(C)c1ccc2nccnc2c1 (single isomer, unassigned) [Compound A161b]
6 | 510 | 54 | C=C(C)n1cc2c(n1)c(N1C[C@@H](CC)N(C(C)c3ccc4nccnc4c3)C[C@@H]1CC)cc(=O)n2C (stereo partly drawn) [Compound A25, 7-((2S,5R)-2,5-diethyl-4-(1-(quinoxalin-6-yl)ethyl)piperazin-1-yl)-4-methyl-2-(prop-1-en-2-yl)-2,4-dihydro-5H-pyrazolo[4,3-b]pyridin-5-one]
7 | 60 | 461 | CC[C@H]1CN(C(C)c2ccc(OC(C)C)nc2)[C@H](CC)CN1c1cc(=O)n(C)c2cn(CC#N)nc12 (stereo partly drawn) [Compound A81]
8 | 2010 | 948 | CC[C@H]1CN(C(C)c2nn(CC)cc2C#N)[C@H](CC)CN1c1cc(=O)n(C)c2cn(CC#N)nc12 (stereo partly drawn) [Compound A240, 3-(1-((2R,5S)-4-(2-(cyanomethyl)-4-methyl-5-oxo-4,5-dihydro-2H-pyrazolo[4,3-b]pyridin-7-yl)-2,5-diethylpiperazin-1-yl)ethyl)-1-ethyl-1H-pyrazole-4-carbonitrile]
9 | 1380 | 728 | CC[C@H]1CN(C(C)c2cnc3ccccc3n2)[C@H](CC)CN1c1cc(=O)n(C)c2cn(CC#N)nc12 (single isomer, unassigned) [Compound A155a]
10 | 495 | 18200 | Cc1ccc2ccc(C(C)N3C[C@H](C)N(c4cc(=O)n(C)c5cn(CC#N)nc45)C[C@H]3C)cc2n1 (stereo partly drawn) [Compound A306]
11 | 27 | 560 | CC[C@H]1CN(C(C)c2cnc3ccccc3c2)[C@H](CC)CN1c1cc(=O)n(C)c2cn(CC#N)nc12 (stereo partly drawn) [Compound A56]
12 | > 10000 | > 10000 | COC(=O)C1CN(c2cc(=O)n(C)c3cn(CC#N)nc23)CCN1[C@H](C)c1ccc2nccnc2c1 (single isomer, unassigned) [Compound A173b]
13 | 3010 | > 10000 | CC(c1cnc2c(c1)OCCO2)N1C[C@H](C)N(c2cc(=O)n(C)c3cn(CC#N)nc23)C[C@H]1C (stereo partly drawn) [Compound A250]
14 | > 10000 | > 10000 | CC(C1CCCCC1)N1C[C@H](C)N(c2cc(=O)n(C)c3cn(CC#N)nc23)C[C@H]1C (stereo partly drawn) [Compound A223]
15 | 881 | 12400 | COc1cnc2cc(C(C)N3C[C@H](C)N(c4cc(=O)n(C)c5cn(CC#N)nc45)C[C@H]3C)ccc2n1 (stereo partly drawn) [Compound A283, 2-(7-((2S,5R)-4-(1-(2-methoxyquinoxalin-6-yl)ethyl)-2,5-dimethylpiperazin-1-yl)-4-methyl-5-oxo-4,5-dihydro-2H-pyrazolo[4,3-b]pyridin-2-yl)acetonitrile]
16 | 3870 | > 10000 | CC[C@H]1CN(C(C)c2c(C)cccc2C(F)(F)F)[C@H](CC)CN1c1cc(=O)n(C)c2cn(CC#N)nc12 (stereo partly drawn) [Compound A117]
17 | 1420 | > 10000 | Cc1nc2c(C(C)N3C[C@H](C)N(c4cc(=O)n(C)c5cn(CC#N)nc45)C[C@H]3C)cccc2o1 (stereo partly drawn) [Compound A45]
18 | 2050 | > 10000 | CC[C@H]1CN(C(C)c2ccccc2C(F)(F)F)[C@H](CC)CN1c1cc(=O)n(C)c2cn(CC#N)nc12 (single isomer, unassigned) [Compound A197a]

Row | IC50 (DGKζ) [nM] | IC50 (DGKα) [nM] | SMILES
19 | 23 | 49800 | Cc1cnc2ccc([C@H](C)N3C[C@H](C)N(c4nc(=O)n(C)c5cn(CC#N)nc45)C[C@H]3C)cc2n1 [Compound A319, 2-(7-((2S,5R)-2,5-dimethyl-4-((S)-1-(3-methylquinoxalin-6-yl)ethyl)piperazin-1-yl)-4-methyl-5-oxo-4,5-dihydro-2H-pyrazolo[4,3-d]pyrimidin-2-yl)acetonitrile]
20 | 1030 | > 10000 | COC(=O)Cn1cc2c(n1)c(N1C[C@@H](C)N(C(C)c3ccc4nccnc4c3)C[C@@H]1C)cc(=O)n2C (stereo partly drawn) [Compound A7]
21 | 652 | > 10000 | [2H]C([2H])([2H])n1c(=O)cc(N2C[C@@H](C)N(C(C)c3ccc(F)cc3C(F)(F)F)C[C@@H]2C)c2nn(CC#N)cc21 (stereo partly drawn) [Compound A257, 2-(7-((2S,5R)-4-(1-(4-fluoro-2-(trifluoromethyl)phenyl)ethyl)-2,5-dimethylpiperazin-1-yl)-4-(methyl-d3)-5-oxo-4,5-dihydro-2H-pyrazolo[4,3-b]pyridin-2-yl)acetonitrile]
22 | > 10000 | > 10000 | CC(c1ccc(F)cc1C(F)(F)F)N1C[C@H](C)N(c2cc(=O)n(C)c3cn(CC#N)nc23)C[C@H]1C (single isomer, unassigned) [Compound A236a]
23 | 72 | 190 | CC#CCn1cc2c(n1)c(N1C[C@@H](C)N([C@@H](C)c3ccc4nccnc4c3)C[C@@H]1C)cc(=O)n2C [Compound A22b, 2-(but-2-yn-1-yl)-7-((2S,5R)-2,5-dimethyl-4-((S)-1-(quinoxalin-6-yl)ethyl)piperazin-1-yl)-4-methyl-2,4-dihydro-5H-pyrazolo[4,3-b]pyridin-5-one]
24 | 270 | 6430 | CC[C@@H]1CN(c2cc(=O)n(C)c3cn(CC#N)nc23)[C@@H](CC)CN1Cc1ccc(F)cc1C(F)(F)F [Compound A241]
25 | > 10000 | > 10000 | C[C@@H](c1ccc2nccnc2c1)N1CCN(c2cc(=O)n(C)c3cn(CC#N)nc23)CC1C(N)=O (single isomer, unassigned) [Compound A198a]
26 | 2210 | > 10000 | CC[C@H]1CN(C(C)c2nc3cc(C(F)(F)F)ccc3n2CC)[C@H](CC)CN1c1cc(=O)n(C)c2cn(CC#N)nc12 (single isomer, unassigned) [Compound A203a]
27 | 98000 | 4.3 | C=C(C)n1cc2c(n1)c(N1C[C@@H](C)N(Cc3ccc(OC(F)(F)F)cc3)C[C@@H]1C)cc(=O)n2C [Compound A26, 7-((2S,5R)-2,5-dimethyl-4-(4-(trifluoromethoxy)benzyl)piperazin-1-yl)-4-methyl-2-(prop-1-en-2-yl)-2,4-dihydro-5H-pyrazolo[4,3-b]pyridin-5-one]
28 | 4420 | > 10000 | CC[C@H]1CN(C(C)c2ccc(F)cc2NC)[C@H](CC)CN1c1cc(=O)n(C)c2cn(CC#N)nc12 (stereo partly drawn) [Compound A163]
29 | 2110 | > 10000 | CC[C@H]1CN(C(C)c2ccc(Cl)cc2C(F)(F)F)[C@H](CC)CN1c1cc(=O)n(C)c2cn(CC#N)nc12 (stereo partly drawn) [Compound A277]
30 | 1610 | 5120 | CC[C@@H]1CN(c2cc(=O)n(C)c3cn(CC#N)nc23)[C@@H](C)CN1C(C)c1ccc2nccnc2c1 (single isomer, unassigned) [Compound A97b]
31 | 41 | 48000 | [2H]C([2H])([2H])c1cnc2ccc(C(C)N3C[C@H](C)N(c4cc(=O)n(C)c5cn(CC#N)nc45)C[C@H]3C)cc2n1 (stereo partly drawn) [Compound A313, 2-(7-((2S,5R)-2,5-dimethyl-4-(1-(3-(methyl-d3)quinoxalin-6-yl)ethyl)piperazin-1-yl)-4-methyl-5-oxo-4,5-dihydro-2H-pyrazolo[4,3-b]pyridin-2-yl)acetonitrile]
32 | 409 | 9840 | CC[C@H]1CN(C(C)c2cccc3c2OC(F)(F)O3)[C@H](CC)CN1c1cc(=O)n(C)c2cn(CC#N)nc12 (stereo partly drawn) [Compound A66]
33 | 317 | 61900 | CC[C@H]1CN(C(C)c2ncc(F)cc2C(F)(F)F)[C@H](CC)CN1c1cc(=O)n(C)c2cn(CC#N)nc12 (stereo partly drawn) [Compound A136, 2-(7-((2S,5R)-2,5-diethyl-4-(1-(5-fluoro-3-(trifluoromethyl)pyridin-2-yl)ethyl)piperazin-1-yl)-4-methyl-5-oxo-4,5-dihydro-2H-pyrazolo[4,3-b]pyridin-2-yl)acetonitrile]
34 | > 150000 | > 150000 | CC(c1ccc2nccnc2c1)N1C[C@H](C)N(c2cc(=O)n(C)c3cn(CC(N)=O)nc23)C[C@H]1C (stereo partly drawn) [Compound A6]
35 | 5920 | 5740 | CC[C@H]1CN(C(C)c2ncc(Cl)n2CC)[C@H](CC)CN1c1cc(=O)n(C)c2cn(CC#N)nc12 (single isomer, unassigned) [Compound A187a]

Row | SMILES | IC50 (DGKζ) [nM] | IC50 (DGKα) [nM]
36 | CC(c1ccc2nccnc2c1)N1C[C@H](C)N(c2cc(=O)[nH]c3cn(CC#N)nc23)C[C@H]1C (stereo partly drawn) [Compound A102, 2-(7-((2S,5R)-2,5-dimethyl-4-(1-(quinoxalin-6-yl)ethyl)piperazin-1-yl)-5-oxo-4,5-dihydro-2H-pyrazolo[4,3-b]pyridin-2-yl)acetonitrile] | 288 | > 10000
